This note sets out measurements from ChEMBL document CHEMBL5725323, “Heterocyclic ITK inhibitors for treating inflammation and cancer” (2017).

As a reminder, the IC50 is the midpoint of a concentration-inhibition curve.

The first assay deals with T1, Tyrosine-protein kinase ITK/TSK (Homo sapiens, UniProt Q08881).
T1 sequence (Q08881 whole entry): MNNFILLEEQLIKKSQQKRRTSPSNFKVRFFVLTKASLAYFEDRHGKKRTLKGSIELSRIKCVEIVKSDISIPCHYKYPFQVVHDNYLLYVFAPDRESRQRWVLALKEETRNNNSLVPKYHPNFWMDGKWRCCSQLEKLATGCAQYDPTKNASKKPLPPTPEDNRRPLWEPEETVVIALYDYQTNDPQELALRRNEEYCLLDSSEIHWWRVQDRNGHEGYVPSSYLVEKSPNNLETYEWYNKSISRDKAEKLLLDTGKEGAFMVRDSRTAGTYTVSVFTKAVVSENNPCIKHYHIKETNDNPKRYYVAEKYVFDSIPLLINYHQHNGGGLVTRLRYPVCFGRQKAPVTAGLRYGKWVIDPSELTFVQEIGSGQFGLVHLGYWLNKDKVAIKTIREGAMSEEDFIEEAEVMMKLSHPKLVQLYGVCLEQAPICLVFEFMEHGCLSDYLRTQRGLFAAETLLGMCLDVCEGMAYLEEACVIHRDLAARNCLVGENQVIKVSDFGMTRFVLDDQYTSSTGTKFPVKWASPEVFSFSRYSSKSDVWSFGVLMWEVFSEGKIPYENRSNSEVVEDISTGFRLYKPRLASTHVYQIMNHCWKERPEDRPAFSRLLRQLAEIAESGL
Description: ITK Inhibitor Binding Kinetics: This assay is based on the binding of a proprietary, Alexa Fluor 647-labeled, ATP-competitive kinase inhibitor (kinase tracer-236) to the ITK expression construct in the presence of a Europium-conjugated antibody, resulting in a FRET (fluorescence resonance energy transfer) signal. Displacement of the kinase tracer by compound results in a lower emission ratio upon excitation of the Europium chelate. Candidate compounds are designed as potential irreversible inhibitors of ITK, capable of ligating to an active site cysteine residue resulting in time dependent covalent binding. The time dependent nature of irreversible inhibition is investigated by performing the binding assay with and without a pre-incubation of compound and ITK.
As to `C=CC(=O)Nc1cccc(-c2cnc3[nH]cc(-c4cc(C)ncn4)c3c2)c1`, the IC50 was less than 1000 nM.

Take `C=CC(=O)Nc1cc(-c2cnc3[nH]cc(-c4ccc(F)nc4)c3c2)cc(C(F)(F)F)c1`: the IC50 is less than 1000 nM.

As for `C=CC(=O)Nc1cccc(-c2cnc3[nH]cc(-c4ccc(NC)nc4)c3c2)c1`, the IC50 is less than 1000 nM.

As for `C=CC(=O)Nc1cccc(-c2cnc3[nH]cc(-c4ccc(=O)n(CC(C)(C)O)c4)c3c2)c1`, the IC50 was less than 1000 nM.

Consider `C=CC(=O)Nc1cc(-c2cnc3[nH]cc(-c4ccnc(F)c4)c3c2)cc(C(F)(F)F)c1`, for which the IC50 is less than 1000 nM.

As for `C=CC(=O)NC1CN(c2cnc3[nH]cc(-c4ccnc(C#N)c4)c3c2)C1`, the IC50 was less than 1000 nM.

With `C=CC(=O)Nc1cccc(-c2cnc3[nH]cc(-c4cncc(Cl)c4)c3c2)c1`, the IC50 was less than 1000 nM.

Consider `C=CC(=O)Nc1cccc(-c2cnc3[nH]cc(-c4cc(OC)nc(C(F)(F)F)c4)c3c2)c1`, for which the IC50 is greater than 1000 nM.

Take `C=CC(=O)Nc1cc(-c2cnc3[nH]cc(-c4cccnc4)c3c2)cc(C(F)(F)F)c1`: the IC50 is less than 1000 nM.

Consider `C=CC(=O)Nc1cccc(-c2cnc3[nH]cc(-c4cc(OC)ncc4C)c3c2)c1`, for which the IC50 is less than 1000 nM.

For the compound `N#C/C(=C\c1cccc(-c2cnc3[nH]cc(-c4ccc(F)nc4)c3c2)c1)C(N)=O`, the IC50 is less than 1000 nM.

`COC/C=C/C(=O)Nc1cccc(-c2cnc3[nH]cc(-c4ccnc(OC)c4)c3c2)c1`: the IC50 is less than 1000 nM.

As for `COc1cc(/C=C(\C#N)C(N)=O)cc(-c2cnc3[nH]cc(-c4ccnc(OC)c4)c3c2)c1`, the IC50 is less than 1000 nM.

In the case of `C=CC(=O)Nc1cccc(-c2cnc3[nH]cc(-c4cncc5[nH]ccc45)c3c2)c1`, the IC50 was less than 1000 nM.

`C=CC(=O)Nc1cccc(-c2cnc3[nH]cc(-c4ccnc5[nH]ccc45)c3c2)c1`: the half-maximal inhibitory concentration (IC50) is less than 1000 nM.

With `C=CC(=O)Nc1cccc(-c2cnc3[nH]cc(-c4ccnc(C)c4)c3c2)c1`, the IC50 is less than 1000 nM.

Consider `C=C(C)C(=O)Nc1cc(-c2cnc3[nH]cc(-c4ccnc(OC)c4)c3c2)cc(-c2cnn(C)c2)n1`, for which the IC50 was less than 1000 nM.

`C=CC(=O)Nc1cccc(-c2cnc3[nH]cc(-c4ccc(OC)nc4)c3c2)c1`: the IC50 is less than 1000 nM.

With `C=CC(=O)Nc1cccc(-c2cnc3[nH]cc(-c4ccc(=O)n(C)c4)c3c2)c1`, the IC50 was less than 1000 nM.

As to `C=CC(=O)Nc1cccc(-c2cnc3[nH]cc(-c4cccnc4)c3c2)c1`, the IC50 is less than 1000 nM.

With `C=CC(=O)Nc1cncc(-c2cnc3[nH]cc(-c4cn(C)c(=O)c5[nH]ccc45)c3c2)c1`, the IC50 is less than 1000 nM.

Turning to `N#C/C(=C\c1cccc(-c2cnc3[nH]cc(-c4ccncn4)c3c2)c1)C(N)=O`, the IC50 was less than 1000 nM.

In the case of `C=CC(=O)Nc1cccc(-c2cnc3[nH]cc(-c4cccc5cnccc45)c3c2)c1`, the IC50 was less than 1000 nM.

For `C=CC(=O)Nc1cccc(-c2cnc3[nH]cc(-c4cc(C)cc(OC)n4)c3c2)c1`, the IC50 was less than 1000 nM.

Regarding `C=CC(=O)Nc1cc(C#N)cc(-c2cnc3[nH]cc(-c4ccncc4)c3c2)c1`, the IC50 was less than 1000 nM.

Regarding `C=CC(=O)Nc1cccc(-c2cnc3[nH]cc(-c4ccc(OCC5CC5)nc4)c3c2)c1`, the IC50 is less than 1000 nM.

For the compound `C=CC(=O)Nc1cccc(-c2cnc3[nH]cc(-c4cccc5ccccc45)c3c2)c1`, the IC50 is less than 1000 nM.

Consider `C=CC(=O)Nc1cccc(-c2cnc3[nH]cc(-c4ccc(F)nc4)c3c2)c1`, for which the IC50 is less than 1000 nM.

In another assay the target is T1, Tyrosine-protein kinase ITK/TSK. Briefly: ITK Target Modulation PLC-gamma Assay: Compounds were serially diluted into DMSO, and then into media to concentrations 10× that of the final assay concentration. Compounds were then added to the cells with the final assay DMSO concentration being 0.1%. Cells were incubated for 1 hour at 37° C. Following compound incubation, αCD3 Dynabeads were added at 1 bead/cell to each assay well and incubated at 37° C. for 7 minutes. Unstimulated control wells received media only. The plate was then placed on a 96-well magnetic plate for an additional 60 seconds (total assay stimulation time equals 8 minutes). The plate was then dumped and gently patted dry on a paper towel. 50 ul of complete Meso Scale Discovery (MSD) Lysis buffer was then added to each well. Samples were assayed for phospho-PLCγ1 using Meso Scale Discovery technology.
With `C=CC(=O)Nc1cccc(-c2cnc3[nH]cc(-c4cccc5[nH]ccc45)c3c2)c1`, the IC50 was 1000 to 5000 nM.

`C=CC(=O)Nc1cccc(-c2cnc3[nH]cc(-c4cccc(C#N)c4)c3c2)c1` had an IC50 of 1000 to 5000 nM.

`C=CC(=O)Nc1cc(-c2cnc3[nH]cc(-c4ccnc(OC)c4)c3c2)cc(-c2cnn(C)c2)c1` gave an IC50 of less than 1000 nM.

For `C=CC(=O)Nc1cccc(-c2cnc3[nH]cc(-c4ccnc(NC)n4)c3c2)c1`, the IC50 is less than 1000 nM.

In turn, `C=CC(=O)Nc1cc(-c2cnc3[nH]cc(-c4ccnc(OC)c4)c3c2)cc(C(O)(CC)CC)c1` gave an IC50 of 1000 to 5000 nM.

`C=CC(=O)Nc1cccc(-c2cnc3[nH]cc(-c4cc(NC)ncn4)c3c2)c1` returned a concentration for half-maximal inhibition (IC50) of 1000 to 5000 nM.

Regarding `C=CC(=O)Nc1cccc(-c2cnc3[nH]cc(-c4ccccc4C)c3c2)c1`, the IC50 lay within 1000 to 5000 nM.

Consider `Cc1cc(-c2c[nH]c3ncc(-c4cccc(/C=C(\C#N)C(N)=O)c4)cc23)ccn1`, for which the IC50 fell in the range of 1000 to 5000 nM.

Take `C=CC(=O)Nc1cccc(-c2cnc3[nH]cc(-c4cccc5ncccc45)c3c2)c1`: the IC50 lay in the range of 1000 to 5000 nM.

`C=CC(=O)Nc1cccc(-c2cnc3[nH]cc(-c4cn(CC5CC5)c(=O)c5[nH]ccc45)c3c2)c1` registered an IC50 of 1000 to 5000 nM.

For `C=CC(=O)Nc1cccc(-c2cnc3[nH]cc(-c4ccnc(F)c4)c3c2)c1`, the IC50 is less than 1000 nM.

`C=CC(=O)Nc1cc(-c2cnc3[nH]cc(-c4ccc(OC)nc4)c3c2)cc(C(F)(F)F)c1` returned an IC50 of 1000 to 5000 nM.

In turn, `C=CC(=O)Nc1cccc(-c2cnc3[nH]cc(-c4cccc5occc45)c3c2)c1` registered an IC50 greater than 5000 nM.

With `C=CC(=O)Nc1cccc(-c2cnc3[nH]cc(-c4cc(C)nc(OC)c4)c3c2)c1`, the IC50 was in the range of 1000 to 5000 nM.

For `C=CC(=O)Nc1cccc(-c2cnc3[nH]cc(-c4ccc(=O)n(CC5CC5)c4)c3c2)c1`, the IC50 was less than 1000 nM.

The compound `C=CC(=O)Nc1cc(-c2cnc3[nH]cc(-c4ccncc4)c3c2)cc(C(F)(F)F)c1` returned an IC50 of less than 1000 nM.

The compound `C=CC(=O)Nc1cccc(-c2cnc3[nH]cc(-c4cccc(OC)c4)c3c2)c1` returned an IC50 of 1000 to 5000 nM.

Compound `C=CC(=O)Nc1cccc(-c2cnc3[nH]cc(-c4ccnc5ccccc45)c3c2)c1` showed a 50% inhibitory concentration (IC50) of 1000 to 5000 nM.

Compound `C=CC(=O)Nc1cccc(-c2cnc3[nH]cc(-c4ccncn4)c3c2)c1` yielded an IC50 of less than 1000 nM.

The compound `C=CC(=O)Nc1cccc(-c2cnc3[nH]cc(-c4ccnc(NC)c4)c3c2)c1` registered an IC50 of less than 1000 nM.

In turn, `C=CC(=O)Nc1cc(OC)cc(-c2cnc3[nH]cc(-c4ccncc4)c3c2)c1` showed an IC50 of less than 1000 nM.
